# Measurements reported in paper PMC6981454, “Promising 2,6,9-Trisubstituted Purine Derivatives for Anticancer Compounds: Synthesis, 3D-QSAR, and Preliminary Biological Assays” (International Journal of Molecular Sciences, 2019).
# Where two headings read alike, the source gives them in different places.
# What was measured:
# Assay type in all cases: cell-based, human
# HL-60 cells = assay: Cell viability by propidium iodide flow cytometry; settings: HL-60, 50 μM, 24 h, PI staining
# Excerpt: Next, in order to determinate the cell death type induced by the most promising compounds, we performed a flow cytometry analysis of cell viability in cell line HL-60 treated with the most promising compounds (selected according to their IC50 values and SI). The HL-60 cancer cells were chosen due to their sensitivity to prepared compounds. […] As a preliminary apoptosis filter, propidium iodide (PI) staining was used through flow cytometry analysis which discriminated a population of viable cells impermeable to PI (PI negative) from necrotic cells PI-permeable (PI positive) and apoptotic cells (the difference of the previous two). The results are shown in Figure 7, illustrating that all purine derivatives tested induced apoptosis on HL-60 cells. Around 40% of apoptotic cells were detected in a culture treated with compounds 7a and 7i, 30% by 7e, 7g, and 7h and 70% by 7d and 7j. […] (For dot plots, see Supplementary Information Figures S1–S3.)
# Cell viability was analyzed by flow cytometry as previously described. In this assay, after setting the baseline to exclude cell debris, cells impermeable to propidium iodide (PI negative) are considered as viable. Two populations of PI-permeable dead cells are distinguished based on fluorescence intensity, corresponding to either hypodiploid apoptotic cells or necrotic cells with intact DNA. Here, HL60 cells were incubated with concentrations of 50 µM of each compound for 24 h at 37 °C. Cells were harvested and stained with 10 µg/mL of propidium iodide to determine cell viability. Samples containing roughly 1 × 10^4 cells were evaluated by flow cytometry (FACScanto II; Becton Dickinson, Mountain View, CA) and analyzed using FCS Express v6 software. Three independent biological replicates were performed.
# MRC-5 = assay: MTT cytotoxicity assay, 72 h, normal control cells; settings: normal fibroblasts
# Protocol: (§1) In our study, the human cancer cell lines used were CFAPC- 1 (pancreatic adenocarcinoma); NCI-H460 (large cell lung); HL-60 (acute promyelocytic leukaemia); CACO2 (colorectal adenocarcinoma); HCT-116 (colorectal carcinoma); K562 (chronic myeloid leukaemia); MCF-7 (breast adenocarcinoma); and MRC-5 control cells (normal fibroblasts).
# (§2) CFAPC-1, NCI-H460 H1975, HL-60, HCT-116, CACO2, K562, MCF-7, and MCR-5 were grown and maintained in RPMI 1640 and DMEM F12 as appropriate with 10% fetal bovine serum, 100 UI/mL penicillin–streptomycin, and cultured al 37 °C in 5% CO2 humidified atmosphere. Control cultures were treated with dimethyl sulfoxide (1%) alone at the same concentration as in the purine derivatives treatment. Cell viability was determined by trypan blue dye exclusion. Cell numbers were counted in hemocytometer by light microscopy.
# (§3) Cytotoxicity assays were performed by using the MTT reduction method as described in the literature. Briefly, cancer cell lines were plated in a flat-bottom 96-wells plate at 1 × 10^4 cells per well density. Then, the cells were incubated with synthetized compounds at different concentrations (from 0.1 to 100 µM) in 200 µL of 10% fetal bovine serum-RPMI or EMEM culture medium at 37 °C for 72 h. Then, 10 µL of MTT was added at a final concentration of 0.5 mg/mL, incubated at 37 °C for 4 h, and then solubilized with 10% sodium dodecyl sulphate (SDS) in 0.1 mM HCl and incubated overnight at 37 °C. Formazan formation was measured at 570 nm in a multi-well reader (StatFax 4200).
# CFPAC-1 = assay: MTT cytotoxicity assay, 72 h
# Protocol: as §1, §2, §3
# HL-60 = assay: MTT cytotoxicity assay, 72 h; settings: for Selectivity Index (SI) MRC-5/HL-60: IC50 in MRC-5 / IC50 in HL-60; for Experimental pIC50 (HL-60): -logIC50 in molar concentration
# Protocol: as §1, §2, §3
# NCI-H460 = assay: MTT cytotoxicity assay, 72 h; settings: for Selectivity Index (SI) MRC-5/NCI-H460: IC50 in MRC-5 / IC50 in NCI-H460; for Experimental pIC50 (NCI-H460): -logIC50 in molar concentration
# Protocol: as §1, §2, §3
# K562 = assay: MTT cytotoxicity assay, 72 h; settings: for IC50: MTT, 72 h, IC50 ± SD; for Selectivity Index (SI) MRC-5/K562: IC50 in MRC-5 / IC50 in K562
# Protocol: as §1, §2, §3
# MCF-7 = assay: MTT cytotoxicity assay, 72 h; settings: for IC50: MTT, 72 h, IC50 ± SD; for Selectivity Index (SI) MRC-5/MCF-7: IC50 in MRC-5 / IC50 in MCF-7
# Protocol: as §1, §2, §3
# HCT-116 = assay: MTT cytotoxicity assay, 72 h
# Protocol: as §1, §2, §3
# CACO2 = assay: MTT cytotoxicity assay, 72 h
# Protocol: Cytotoxicity assays were performed by using the MTT reduction method as described in the literature [23, 37]. Briefly, cancer cell lines were plated in a flat-bottom 96-wells plate at 1 × 10^4 cells per well density. Then, the cells were incubated with synthetized compounds at different concentrations (from 0.1 to 100 µM) in 200 µL of 10% fetal bovine serum-RPMI or EMEM culture medium at 37 °C for 72 h. Then, 10 µL of MTT was added at a final concentration of 0.5 mg/mL, incubated at 37 °C for 4 h, and then solubilized with 10% sodium dodecyl sulphate (SDS) in 0.1 mM HCl and incubated overnight at 37 °C. Formazan formation was measured at 570 nm in a multi-well reader (StatFax 4200).
# [1] = Homo sapiens, CFPAC-1, IC50 ± SD
# [2] = Homo sapiens, HL-60, 72 h, MTT, 72 h, IC50 ± SD, read-out: IC50 HL-60
# [3] = Homo sapiens, HL-60, -logIC50 in molar concentration, Table S1, read-out: Experimental pIC50 (HL-60) (converted)
# [4] = Homo sapiens, NCI-H460, 72 h, MTT, 72 h, IC50 ± SD, read-out: IC50 NCI-H460
# [5] = Homo sapiens, NCI-H460, -logIC50 in molar concentration, Table S2, read-out: Experimental pIC50 (NCI-H460) (converted)
# [6] = MTT, 72 h, IC50 ± SD, read-out: IC50 NCI-H460
# [7] = Homo sapiens, HCT-116, IC50 ± SD
# [8] = Homo sapiens, Caco-2, IC50 ± SD
# [9] = MTT, 72 h, IC50 ± SD, read-out: IC50 HL-60
Compound,apoptotic cells (HL-60 cells),"IC50 (MRC-5; Homo sapiens, MRC5, IC50 ± SD)",IC50 (CFPAC-1; [1]),IC50 (HL-60; [2]),IC50 (HL-60; [3]),IC50 (NCI-H460; [4]),IC50 (NCI-H460; [5]),IC50 (NCI-H460; [6]),"IC50 (K562; Homo sapiens, K562, 72 h)","IC50 (MCF-7; Homo sapiens, MCF7, 72 h)",IC50 (HCT-116; [7]),IC50 (CACO2; [8]),IC50 (MRC-5; IC50 ± SD),IC50 (CFPAC-1; IC50 ± SD),Experimental pIC50 (HL-60) (HL-60; Table S1),IC50 (HL-60; [9]),IC50 (K562),IC50 (MCF-7),IC50 (HCT-116; IC50 ± SD),IC50 (CACO2; IC50 ± SD),other results
"Clc1nc(N2CCN(c3ccncc3)CC2)c2ncn(C3CCCC3)c2n1 [7i, 2-Chloro-9-cyclopentyl-6-(4-(pyridin-4-yl)piperazin-1-yl)-9H-purine]",Around 40%,> 100 µM,> 100 µM,3.8 ± 1.5 µM,3.8 µM,< 10 µM,8.54 µM,8.54 ± 0.21 µM,9.96 ± 0.93 µM,22 ± 1 µM,> 50 µM,> 100 µM,,,,,,,,,Selectivity Index (SI) MRC-5/HL-60 (HL-60): > 26.3; Selectivity Index (SI) MRC-5/NCI-H460 (NCI-H460): > 11.7; Selectivity Index (SI) MRC-5/K562 (K562): > 10; Selectivity Index (SI) MRC-5/MCF-7 (MCF-7): > 4.5
"COc1ccc(N2CCN(c3nc(Cl)nc4c3ncn4C3CCCC3)CC2)cc1 [7j, 2-Chloro-9-cyclopentyl-6-(4-(4-methoxyphenyl)piperazin-1-yl)-9H-purine]",~70%,30 ± 1 µM,> 100 µM,1.5 ± 0.07 µM,1.5 µM,< 10 µM,7.08 µM,7.08 ± 0.22 µM,3.38 ± 0.71 µM,6.61 ± 0.67 µM,> 50 µM,> 100 µM,,,,,,,,,Selectivity Index (SI) MRC-5/HL-60 (HL-60): 20.0; Selectivity Index (SI) MRC-5/NCI-H460 (NCI-H460): 4.2; Selectivity Index (SI) MRC-5/K562 (K562): 8.8; Selectivity Index (SI) MRC-5/MCF-7 (MCF-7): 4.5
"CCCn1cnc2c(-c3ccc(OC(F)(F)F)cc3)nc(NC3CCCCC3)nc21 [4f, N-cyclohexyl-9-propyl-6-(4-(trifluoromethoxy)phenyl)-9H-purin-2-amine]",,,,,,,,> 100 µM,,,,,68 ± 1 µM,69 ± 1 µM,5.0088 M,9.8 ± 1.5 µM,> 25 µM,> 25 µM,> 50 µM,> 100 µM,
"CCCn1cnc2c(-c3ccc(OC(F)(F)F)cc3)nc(NC3CCCC3)nc21 [4e, N-cyclopentyl-9-propyl-6-(4-(trifluoromethoxy)phenyl)-9H-purin-2-amine]",,,,,,,,> 100 µM,,,,,> 100 µM,> 100 µM,4.7447 M,18 ± 4 µM,> 25 µM,> 25 µM,> 50 µM,> 100 µM,
"N.N.[Cl][Pt][Cl] [Cisplatin, reference compound]",66%,,,,,,,4.77 ± 0.13 µM,,,,,6.78 ± 0.18 µM,3.16 ± 0.1 µM,,6.2 ± 0.2 µM,4.67 ± 0.38 µM,10.9 ± 0.8 µM,3.89 ± 1.3 µM,,"IC50 (NCI-H460; MTT, 72 h, IC50 ± SD, listed as cisplatin, read-out: IC50 NCI-H460): 4.8 µM"
N-cyclohexyl-9-ethyl-6-(4-(trifluoromethoxy)phenyl)-9H-purin-2-amine [4b],,,,,,,,> 100 µM,,,,,> 100 µM,> 100 µM,,> 50 µM,> 25 µM,> 25 µM,> 50 µM,> 100 µM,
"Clc1nc(N2CCN(c3cnccn3)CC2)c2ncn(C3CCCC3)c2n1 [7d, 2-Chloro-9-cyclopentyl-6-(4-(pyrazin-2-yl)piperazin-1-yl)-9H-purine]",~70%,17 ± 1 µM,> 100 µM,4.6 ± 0.2 µM,4.6 µM,8.25 ± 0.11 µM,8.25 µM,,5.86 ± 1.06 µM,> 12.5 µM,> 50 µM,> 100 µM,,,,,,,,,Selectivity Index (SI) MRC-5/HL-60 (HL-60): 3.7; Selectivity Index (SI) MRC-5/NCI-H460 (NCI-H460): 2.0; Selectivity Index (SI) MRC-5/K562 (K562): 2.9
"CCn1cnc2c(-c3ccc(OC(F)(F)F)cc3)nc(NCC3CCCCC3)nc21 [4c, N-(cyclohexylmethyl)-9-ethyl-6-(4-(trifluoromethoxy)phenyl)-9H-purin-2-amine]",,,,,,,,64 ± 2 µM,,,,,60 ± 1 µM,67 ± 1 µM,4.6021 M,25 ± 5.4 µM,> 25 µM,> 25 µM,> 50 µM,> 100 µM,Experimental pIC50 (NCI-H460) (NCI-H460; Table S2): 4.1938 M
"Clc1nc(N2CCN(c3ccccn3)CC2)c2ncn(C3CCCC3)c2n1 [7b, 2-Chloro-9-cyclopentyl-6-(4-(pyridin-2-yl)piperazin-1-yl)-9H-purine]",,> 100 µM,> 100 µM,> 50 µM,,> 100 µM,,,3.06 ± 0.54 µM,5.07 ± 0.9 µM,> 50 µM,> 100 µM,,,,,,,,,
"Clc1nc(N2CCN(c3ccccc3)CC2)c2ncn(C3CCCC3)c2n1 [7f, 2-Chloro-9-cyclopentyl-6-(4-phenylpiperazin-1-yl)-9H-purine]",,> 100 µM,> 100 µM,1.3 ± 0.5 µM,1.3 µM,6.71 ± 0.23 µM,6.71 µM,,4.22 ± 0.27 µM,6.13 ± 0.25 µM,> 50 µM,> 100 µM,,,,,,,,,
"Clc1nc(N2CCC(c3ccccc3)CC2)c2ncn(C3CCCC3)c2n1 [7e, 2-Chloro-9-cyclopentyl-6-(4-phenylpiperidin-1-yl)-9H-purine]",~30%,> 100 µM,> 100 µM,3 ± 0.6 µM,3 µM,11 ± 1 µM,11 µM,,,,> 50 µM,> 100 µM,,,,,,,,,Selectivity Index (SI) MRC-5/HL-60 (HL-60): > 33.3; Selectivity Index (SI) MRC-5/NCI-H460 (NCI-H460): > 9.1
N-cycloheptyl-9-ethyl-6-(4-(trifluoromethoxy)phenyl)-9H-purin-2-amine [4d],,,,,,,,> 100 µM,,,,,> 100 µM,> 100 µM,4.6778 M,21 ± 1 µM,> 25 µM,> 25 µM,> 50 µM,> 100 µM,
"CCCn1cnc2c(-c3ccc(OC(F)(F)F)cc3)nc(NC3CCCCCC3)nc21 [4h, N-cycloheptyl-9-propyl-6-(4-(trifluoromethoxy)phenyl)-9H-purin-2-amine]",,> 100 µM,> 100 µM,14 ± 1 µM,14 µM,> 100 µM,,,> 25 µM,> 25 µM,> 50 µM,> 100 µM,,,,,,,,,
"CCCn1cnc2c(-c3ccc(OC(F)(F)F)cc3)nc(NCC3CCCCC3)nc21 [4g, N-(cyclohexylmethyl)-9-propyl-6-(4-(trifluoromethoxy)phenyl)-9H-purin-2-amine]",,,,,,,,72 ± 2 µM,,,,,> 100 µM,98 ± 5 µM,4.6778 M,21 ± 5 µM,> 25 µM,> 25 µM,> 50 µM,> 100 µM,Experimental pIC50 (NCI-H460) (NCI-H460; Table S2): 4.1427 M
